ChEMBL document CHEMBL1201862, “PubChem BioAssay data set” (2004)
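Following 48 hours of exposure in 96-well plates, responses at five concentrations were used to interpolate endpoints linearly. GI50 marks 50% less growth.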 Calls of active or inactive are those of the source. Cut-off read from the data, not from the text of the source: active = GI50 up to about 1.1 µM and inactive = higher.

How the values were obtained:
Test in all cases: DTP human tumour cell line panel, 48 h
MDA-MB-231 = system: MDA-MB-231
NCI/ADR-RES = system: NCI/ADR-RES
DU-145 = system: DU-145
EKVX = system: EKVX
OVCAR-4 = system: OVCAR-4
COLO 205 = system: COLO 205
SNB-75 = system: SNB-75
SW-620 = system: SW-620
IGROV-1 = system: IGROV-1
HCT-116 = system: HCT-116
OVCAR-3 = system: OVCAR-3
MDA-MB-435 = system: MDA-MB-435
T47D = system: T47D
TK-10 = system: TK-10
LOX IMVI = system: LOX IMVI
PC-3 = system: PC-3
U-251 = system: U-251
OVCAR-8 = system: OVCAR-8
KM12 = system: KM12
MDA-N = system: MDA-N

Measured: GI50

COc1cc2c(cc1OCCCCCOc1cc3c(cc1OC)C(=O)N1CCC[C@H]1CN3)N=C[C@@H]1CCCN1C2=O
inactive: MDA-MB-231 2.49 µM | NCI/ADR-RES 23.4 µM | DU-145 11.1 µM | EKVX 39.6 µM | OVCAR-4 25.6 µM | COLO 205 4.37 µM | SNB-75 15 µM | SW-620 4.25 µM | IGROV-1 3.33 µM | HCT-116 4.85 µM | OVCAR-3 12.6 µM | MDA-MB-435 6.85 µM | T47D 3.5 µM | TK-10 19.5 µM | LOX IMVI 1.34 µM | PC-3 10.1 µM | U-251 1.49 µM | OVCAR-8 2.58 µM | KM12 2.92 µM

Cc1cn(CC2=NCCCN2)c(=O)[nH]c1=O
inactive: MDA-MB-231 > 100 µM | NCI/ADR-RES > 100 µM | DU-145 > 100 µM | EKVX > 100 µM | COLO 205 > 100 µM | SNB-75 > 100 µM | SW-620 > 100 µM | IGROV-1 > 100 µM | HCT-116 > 100 µM | T47D > 100 µM | TK-10 > 100 µM | LOX IMVI > 100 µM | PC-3 > 100 µM | U-251 > 100 µM | OVCAR-8 > 100 µM | MDA-N > 100 µM

CC1(C)[C@H]2CC[C@@]13C(=O)N1C(=O)O[C@@H]([C@H]1Cl)C(Cl)(COCc1ccccc1)C(=O)OCCO[C@H]3C2 (stereo partly drawn)
inactive: NCI/ADR-RES 59.4 µM | EKVX 95.9 µM | OVCAR-4 40.6 µM | COLO 205 18 µM | SNB-75 > 100 µM | SW-620 66.8 µM | IGROV-1 > 100 µM | HCT-116 37.8 µM | OVCAR-3 54.2 µM | MDA-MB-435 42.8 µM | T47D 43.1 µM | LOX IMVI 74 µM | PC-3 38.2 µM | U-251 39.4 µM | OVCAR-8 > 100 µM | MDA-N 64.9 µM | KM12 63.7 µM

COc1ccc(C2c3cc4c(cc3OC(N3CCOCC3)C2C)OCO4)cc1 (stereo not drawn)
inactive: NCI/ADR-RES 23.2 µM | DU-145 27.7 µM | EKVX 23.9 µM | OVCAR-4 37.8 µM | COLO 205 27.2 µM | SNB-75 35.9 µM | SW-620 29.1 µM | IGROV-1 30.3 µM | HCT-116 20.2 µM | OVCAR-3 20.8 µM | MDA-MB-435 20.7 µM | T47D 7.96 µM | TK-10 29.1 µM | LOX IMVI 24.1 µM | PC-3 22.3 µM | U-251 18 µM | OVCAR-8 34.7 µM | MDA-N 16.9 µM | KM12 23.4 µM

Nc1ncn2c(n1)nc1ccccc12
inactive: MDA-MB-231 > 100 µM | NCI/ADR-RES > 100 µM | DU-145 > 100 µM | EKVX 54.8 µM | OVCAR-4 > 100 µM | COLO 205 > 100 µM | SNB-75 3.51 µM | SW-620 > 100 µM | IGROV-1 > 100 µM | HCT-116 > 100 µM | MDA-MB-435 > 100 µM | T47D > 100 µM | TK-10 > 100 µM | PC-3 > 100 µM | U-251 > 100 µM | OVCAR-8 > 100 µM | MDA-N > 100 µM | KM12 > 100 µM

CC1(C)O[C@@H]2[C@@H](COC(C)(C)O[C@H]2C2SCCCS2)O1
inactive: MDA-MB-231 > 100 µM | NCI/ADR-RES > 100 µM | DU-145 > 100 µM | OVCAR-4 > 100 µM | COLO 205 > 100 µM | SW-620 > 100 µM | HCT-116 > 100 µM | OVCAR-3 > 100 µM | MDA-MB-435 > 100 µM | T47D > 100 µM | PC-3 > 100 µM | U-251 > 100 µM | OVCAR-8 > 100 µM | MDA-N > 100 µM | KM12 > 100 µM

CCOP(=O)(OCC)C(Nc1ccc(Br)cc1)c1cccc([N+](=O)[O-])c1 (stereo not drawn)
inactive: MDA-MB-231 15 µM | NCI/ADR-RES 13.5 µM | DU-145 32.8 µM | EKVX 2.99 µM | OVCAR-4 21.4 µM | COLO 205 13.2 µM | SNB-75 29.2 µM | SW-620 16.9 µM | IGROV-1 22.1 µM | HCT-116 12.7 µM | OVCAR-3 16.2 µM | MDA-MB-435 16.1 µM | T47D 12.6 µM | TK-10 30.5 µM | LOX IMVI 10.4 µM | U-251 18.2 µM | OVCAR-8 24.6 µM | MDA-N 19.2 µM | KM12 12.6 µM

CN(C)/N=N/c1nc2c(c(=O)n(C)c(=O)n2C)n1CC(O)CO (stereo not drawn)
inactive: MDA-MB-231 > 100 µM | NCI/ADR-RES > 100 µM | DU-145 > 100 µM | EKVX > 100 µM | OVCAR-4 > 100 µM | COLO 205 > 100 µM | SNB-75 > 100 µM | SW-620 > 100 µM | IGROV-1 > 100 µM | HCT-116 > 100 µM | OVCAR-3 > 100 µM | MDA-MB-435 > 100 µM | T47D 38.7 µM | TK-10 > 100 µM | PC-3 > 100 µM | U-251 > 100 µM | OVCAR-8 > 100 µM | MDA-N > 100 µM | KM12 > 100 µM

COc1ccc(-c2cc(-c3ccc(O)cc3O)c(C#N)c(=O)[nH]2)cc1
inactive: MDA-MB-231 17.3 µM | NCI/ADR-RES 19.6 µM | DU-145 40.6 µM | EKVX 15.2 µM | OVCAR-4 20.1 µM | COLO 205 16.6 µM | SW-620 21.3 µM | HCT-116 19.1 µM | OVCAR-3 20.5 µM | MDA-MB-435 13.8 µM | T47D 93.3 µM | TK-10 26.5 µM | LOX IMVI 16.6 µM | PC-3 14.4 µM | U-251 18.7 µM | OVCAR-8 31.9 µM | MDA-N 11.6 µM | KM12 22.6 µM

Cn1c(N)c(Cc2ccc(Cl)cc2)c(=O)[nH]c1=O
inactive: MDA-MB-231 > 100 µM | NCI/ADR-RES > 100 µM | DU-145 > 100 µM | EKVX > 100 µM | COLO 205 > 100 µM | SNB-75 62.8 µM | SW-620 > 100 µM | IGROV-1 > 100 µM | HCT-116 > 100 µM | OVCAR-3 > 100 µM | MDA-MB-435 > 100 µM | T47D > 100 µM | TK-10 > 100 µM | LOX IMVI > 100 µM | OVCAR-8 > 100 µM | MDA-N > 100 µM | KM12 > 100 µM

CCOP(=O)(OCC)/C(C#N)=C/c1ccc(-c2cc(C(F)(F)F)cc(C(F)(F)F)c2)o1
inactive: MDA-MB-231 13.7 µM | NCI/ADR-RES 9.82 µM | DU-145 14.6 µM | EKVX 20.7 µM | COLO 205 12.4 µM | SNB-75 10.5 µM | SW-620 14.9 µM | HCT-116 13.2 µM | OVCAR-3 8.02 µM | MDA-MB-435 14 µM | T47D 11.9 µM | TK-10 16.4 µM | LOX IMVI 3.34 µM | PC-3 11.7 µM | U-251 12 µM | OVCAR-8 16.2 µM | MDA-N 13.3 µM

O/N=N/c1ccc([SH2]c2ccc3ccccc3c2)cn1
inactive: MDA-MB-231 30.1 µM | NCI/ADR-RES 19.1 µM | DU-145 17.1 µM | EKVX 23.6 µM | OVCAR-4 > 100 µM | COLO 205 20.2 µM | SNB-75 20.2 µM | SW-620 28.3 µM | IGROV-1 32.7 µM | HCT-116 15 µM | OVCAR-3 43.8 µM | T47D 20.6 µM | TK-10 28.6 µM | PC-3 8.85 µM | U-251 19.3 µM | OVCAR-8 19.1 µM | MDA-N 31.4 µM | KM12 41.4 µM

Cc1cc2c(cc1O)CC[C@@H]1[C@@H]2CC[C@]2(C)[C@@H](O)CC[C@@H]12
inactive: MDA-MB-231 9.38 µM | NCI/ADR-RES 5.77 µM | OVCAR-4 12.4 µM | COLO 205 17.6 µM | SNB-75 5.43 µM | SW-620 4.28 µM | IGROV-1 15.8 µM | T47D 19.3 µM | TK-10 24 µM | LOX IMVI 11 µM | PC-3 11.1 µM | U-251 5.73 µM | OVCAR-8 19.1 µM | MDA-N 1.9 µM | KM12 4.52 µM

O=C(Cn1ccnc1[N+](=O)[O-])NCCO [ETANIDAZOLE]
inactive: MDA-MB-231 > 100 µM | NCI/ADR-RES > 100 µM | DU-145 > 100 µM | EKVX > 100 µM | OVCAR-4 > 100 µM | COLO 205 > 100 µM | SNB-75 > 100 µM | SW-620 > 100 µM | IGROV-1 > 100 µM | HCT-116 > 100 µM | OVCAR-3 > 100 µM | MDA-MB-435 > 100 µM | T47D > 100 µM | TK-10 > 100 µM | LOX IMVI > 100 µM | PC-3 > 100 µM | U-251 > 100 µM | OVCAR-8 > 100 µM | KM12 > 100 µM

Clc1ccc(COC(Cn2ccnc2)c2ccc(Cl)cc2Cl)c(Cl)c1 (stereo not drawn) [MICONAZOLE]
inactive: MDA-MB-231 12.6 µM | NCI/ADR-RES 6.1 µM | DU-145 15.7 µM | EKVX 14.3 µM | OVCAR-4 10.1 µM | SW-620 12.1 µM | HCT-116 5.12 µM | OVCAR-3 12.2 µM | MDA-MB-435 3.23 µM | T47D 7.89 µM | TK-10 13.7 µM | LOX IMVI 12.7 µM | PC-3 7.08 µM | U-251 11.7 µM | OVCAR-8 13.9 µM | MDA-N 4.8 µM | KM12 11.8 µM
